Patent US8507445B2, “Compositions and methods of use of targeting peptides for diagnosis and therapy of human cancer” (Board of Regents, The University of Texas System, priority 2002, dated 2013)

How the values were obtained:
DU145 xenografts [1] = test: Biopanning of X2CX14CX2 phage library in tumor-bearing mice; type: in vivo, nude mice; settings: third round, 76 translated clones
Description: DU145 prostate tumor cells were injected subcutaneously into the right fat pad of nude mice. A large phage library (X2CX14CX2) was prepared as discussed above and 10^9 phage were injected into male tumor-bearing nude mice. After 24 hr circulation, tumors were removed and phage recovered from the tumors using the bulk method disclosed above. The recovered phage were amplified, titered and reinjected into a new set of tumor bearing nude mice. The biopanning protocol was repeated for a total of three rounds. Ninety-six phage clones recovered from the third round of biopanning were selected for sequencing. Translated sequences were obtained for 76 of the 96 clones.

[2] = system: immunoglobulins from the serum of prostate cancer patient M; test: Biopanning on purified immunoglobulins from serum of prostate cancer patient M; type: binding, human; settings: three rounds of panning; for phage exhibiting the sequence / total clones, 1994 Serum: early stage; for phage exhibiting the sequence / total clones, 1998 Serum: intermediate stage; for phage exhibiting the sequence / total clones, 2000 Serum: late stage
Source text: The methods used were similar to those described in Example 4. A subtraction protocol was used, in which IgG from a normal individual was coupled to protein G chromatography beads. A cyclic CX6C phage display library, prepared as described above, was exposed to the normal IgG's. […] Antibodies from patient M (prostate cancer patient) were attached to fresh protein G chromatograpy beads. […] This procedure was followed for three rounds of screening and targeting peptides against patient M's antibodies were obtained.
Serum samples from the same patient were obtained from archival specimens and used to obtain targeting peptides. Patient M's serum from 1994 (early stage cancer), 1998 (intermediate stage) and 2000 (late stage) were used to obtain antibody targeting peptides as described above.

[3] = system: immunoglobulins from the serum of metastatic prostate cancer patients; test: Biopanning of CX6C phage library on IgGs from serum of prostate cancer patients A, B, C; type: binding, human; settings: for share of the clones analyzed: second and third rounds, patient A, B or C that yielded the peptide; for share of the clones in round II / share of the clones in round III: patient C
Source text: Sera was selected from patients diagnosed with androgen-dependent and androgen-independent prostate cancer. A CX6C peptide library was screened against this pool of IgGs in a two-step procedure. First, the peptide library was pre-cleared against a pool of purified IgGs from normal serum samples using Protein G affinity chromatography. This step removed peptides from the phage display library that bound to immunoglobulins from patients without prostate cancer. Next, the pre-cleared peptide library was screened against the pool of purified IgGs from the serum of prostate cancer patients. This step selected peptides binding specifically to IgGs elicited against prostate cancer.
A 6-mer cyclic peptide (CX6C) phage display library was used for the biopanning. To select peptides specific to the serum antibodies of cancer patients, a pre-clearing stage was employed to remove non-specific peptides by pre-absorbing the peptide library onto purified IgGs from pooled normal serum (five healthy male individuals). The pre-cleared peptide library was screened onto the purified IgGs from the serum of prostate cancer patients. In brief, 10^9 transducing units (T.U.) of a CX6C cyclic peptide phage library were incubated with IgG antibodies from 50 μl of normal serum immobilized on 50 μl of protein G (Gibco BRL) for 1 hour at 4° C. This was followed by affinity selection on the immobilized IgG antibodies from prostate cancer patient serum for 2 hours at 4° C. Phage peptides specifically bound to IgGs elicited against prostate cancer were eluted with 100 μl of 0.1 M glycine buffer, pH 2.2, neutralized by the addition of 10 μl 1M Tris pH 9.0, and used to infect E. coli strain K91. Ten-fold serial dilutions of the infected solution were spread onto agar plates containing 40 μg/ml of tetracycline and grown overnight. Two hundred colonies were picked, amplified, and precipitated for a subsequent round of panning. A total of three rounds were performed. Individual phage clones were picked for PCR and the insert DNA was sequenced.

DU145 xenografts [4] = test: Phage localization by anti-phage staining of tissues; type: in vivo, nude mice; settings: 24 hour circulation
Description: To determine the specificity of the prostate tumor targeting peptides, 10^9 phage carrying the targeting peptide sequences […] (SEQ ID NO:83) and […] (SEQ ID NO:84) were injected into nude mice bearing DU145 xenografts. After 24 hour circulation, tissue samples were obtained from tumor and control organs (kidney, brain, lung and spleen). Tissue samples were washed immediately in DMAM and fixed in 10% formalin for 48 hours at room temperature. Thin sections were stained for phage using anti-phage antibody (1:500 dilution) and detected using the DAKO LSAB+ system. […] This may be due to the tendency of spleen tissue to trap phage and other foreign particles in general as part of the reticuloendothelial system.

| Sequence | number of times the sequence was obtained (DU145 xenografts [1]) | other results |
| --- | --- | --- |
| ARCREDTGFMGLGSANICTD | ARCREDTGFMGLGSANICTD (1) |  |
| CAVKSVTC |  | phage exhibiting the sequence / total clones, 1994 Serum [2]: CAVKSVTC (1/22) |
| CFETFAGC |  | phage exhibiting the sequence / total clones, 1998 Serum [2]: CFETFAGC (1/20) |
| CFPKRVTC |  | phage exhibiting the sequence / total clones, 2000 Serum [2]: CFPKRVTC (1/29) |
| CHQKPWEC |  | share of the clones analyzed [3]: 100% |
| CIDMTHQC |  | phage exhibiting the sequence / total clones, 1994 Serum [2]: CIDMTHQC (1/22) |
| CISSPSNC |  | phage exhibiting the sequence / total clones, 1994 Serum [2]: CISSPSNC (1/22) |
| CKDRFERC |  | share of the clones analyzed [3]: 100% |
| CKNKHTTC |  | phage exhibiting the sequence / total clones, 1998 Serum [2]: CKNKHTTC (1/20) |
| CLTSENAC |  | phage exhibiting the sequence / total clones, 1994 Serum [2]: CLTSENAC (1/22) |
| CNGFMGYC |  | phage exhibiting the sequence / total clones, 1994 Serum [2]: CNGFMGYC (1/22) |
| CNITQKSC |  | share of the clones in round II [3]: 33.3%; share of the clones in round III [3]: 0% |
| CNKTDKGC |  | share of the clones in round II [3]: 16.7%; share of the clones in round III [3]: 0% |
| CNNMYAGC |  | phage exhibiting the sequence / total clones, 1998 Serum [2]: CNNMYAGC (1/20) |
| CNQSMWSC |  | phage exhibiting the sequence / total clones, 1994 Serum [2]: CNQSMWSC (1/22) |
| CNSAFAGC |  | phage exhibiting the sequence / total clones, 1994 Serum [2]: CNSAFAGC (1/22); phage exhibiting the sequence / total clones, 1998 Serum [2]: CNSAFAGC (1/20); phage exhibiting the sequence / total clones, 2000 Serum [2]: CNSAFAGC (1/29) |
| CNWTDKTC |  | share of the clones in round II [3]: 33.3%; share of the clones in round III [3]: 7% |
| CPRSAKNC |  | phage exhibiting the sequence / total clones, 2000 Serum [2]: CPRSAKNC (1/29) |
| CQFENGTC |  | phage exhibiting the sequence / total clones, 1994 Serum [2]: CQFENGTC (1/22) |
| CQNQYPEC |  | phage exhibiting the sequence / total clones, 1994 Serum [2]: CQNQYPEC (1/22); phage exhibiting the sequence / total clones, 1998 Serum [2]: CQNQYPEC (1/20) |
| CRASAMVC |  | phage exhibiting the sequence / total clones, 1994 Serum [2]: CRASAMVC (1/22) |
| CRDGYHHC |  | phage exhibiting the sequence / total clones, 1994 Serum [2]: CRDGYHHC (1/22) |
| CSASDLSC |  | phage exhibiting the sequence / total clones, 1994 Serum [2]: CSASDLSC (2/22) |
| CSKKFVTC |  | phage exhibiting the sequence / total clones, 1998 Serum [2]: CSKKFVTC (3/20) |

| Sequence | number of times the sequence was obtained (DU145 xenografts [1]) | other results |
| --- | --- | --- |
| CSTFAGSC |  | phage exhibiting the sequence / total clones, 1994 Serum [2]: CSTFAGSC (1/22) |
| CSYTFAGC |  | phage exhibiting the sequence / total clones, 1994 Serum [2]: CSYTFAGC (1/22) |
| CTFAGSSC |  | phage exhibiting the sequence / total clones, 1994 Serum [2]: CTFAGSSC (6/22); phage exhibiting the sequence / total clones, 1998 Serum [2]: CTFAGSSC (12/20); phage exhibiting the sequence / total clones, 2000 Serum [2]: CTFAGSSC (26/29) |
| DACSRFLGERVDATAAGCSR | DACSRFLGERVDATAAGCSR (2) |  |
| DRCVLVRPEFGRGDARLCHS | DRCVLVRPEFGRGDARLCHS (2) |  |
| EGCSDIMNTAAERVTGDCSY | EGCSDIMNTAAERVTGDCSY (2) |  |
| GDCETNNVTKVGGITRNCVG | GDCETNNVTKVGGITRNCVG (1) |  |
| GNCMGLQVSELFMGPYKCRQ | GNCMGLQVSELFMGPYKCRQ (2) |  |
| GPCAATGVNPGDHGAAVCDQ | GPCAATGVNPGDHGAAVCDQ (1) |  |
| GTCPRQFFHMQEFWPSDCSR | GTCPRQFFHMQEFWPSDCSR (3) |  |
| GYCLTVVGGAVLTLALLCVT | GYCLTVVGGAVLTLALLCVT (1) |  |
| HTCWGARDVAQPSGTVRCLK | HTCWGARDVAQPSGTVRCLK (1) |  |
| IGCNHPSPLGSTVVPTYCFK | IGCNHPSPLGSTVVPTYCFK (3) |  |
| KICPVTNMWTTPSWAHKCGM | KICPVTNMWTTPSWAHKCGM (1) |  |
| KLCYRSSAGSELRPPEKCAY | KLCYRSSAGSELRPPEKCAY (1) |  |
| KSCGKYGLIVGQPFAEHCPP | KSCGKYGLIVGQPFAEHCPP (1) |  |
| LGCMASMLREFEGATHACTQ |  | anti-phage staining of control kidney, brain or lung (DU145 xenografts [4]): No staining was observed; anti-phage staining of normal spleen (DU145 xenografts [4]): low level of anti-phage staining; anti-phage staining of tumor (DU145 xenografts [4]): very heavy staining |
| LGCNKGRYWLSTRLSVSCAL | LGCNKGRYWLSTRLSVSCAL (1) |  |
| LRCPLEVDRPNRDPAFLCSQ | LRCPLEVDRPNRDPAFLCSQ (1) |  |
| MHCTSQTLRGTPSLAPKCSD | MHCTSQTLRGTPSLAPKCSD (1) |  |
| NDCSAHAQPGWDEVPPMCNQ | NDCSAHAQPGWDEVPPMCNQ (1) |  |
| NNCPVEGSQQNYSGATWCRA | NNCPVEGSQQNYSGATWCRA (1) |  |
| NQCSSLLTYQGWKRTKDCIP | NQCSSLLTYQGWKRTKDCIP (1) |  |
| NRCMPGFLDDADSAASPCGS | NRCMPGFLDDADSAASPCGS (1) |  |

| Sequence | number of times the sequence was obtained (DU145 xenografts [1]) | other results |
| --- | --- | --- |
| PGCVVSPFALSAQGTSVCTI | PGCVVSPFALSAQGTSVCTI (1) |  |
| PNCDLDDIVLNPYTAGPCGT | PNCDLDDIVLNPYTAGPCGT (1) |  |
| PNCYSGDGEISSHIPVQCLM | PNCYSGDGEISSHIPVQCLM (1) |  |
| QHCVKGQFPFRESVTITCNS | QHCVKGQFPFRESVTITCNS (1) |  |
| RECGRTVHRYPWGSPESCER | RECGRTVHRYPWGSPESCER (2) |  |
| RGCTEAAGLVIGITTHQCGN | RGCTEAAGLVIGITTHQCGN (3) |  |
| RGCWRDSTAWHVSYPVECLA | RGCWRDSTAWHVSYPVECLA (1) |  |
| RSCVNSDTGVLQRGAPSCLF | RSCVNSDTGVLQRGAPSCLF (1) |  |
| RTCEEVRNRALEELTNFCPY | RTCEEVRNRALEELTNFCPY (1) |  |
| RTCQVRSNNISPRMALACVT | RTCQVRSNNISPRMALACVT (1) |  |
| SRCHALRSQSVSTSAGACIS | SRCHALRSQSVSTSAGACIS (1) |  |
| TECRGASSGSVSGAATDCRD | TECRGASSGSVSGAATDCRD (1) |  |
| TLCPPASMGLGREKPRLCSV | TLCPPASMGLGREKPRLCSV (1) |  |
| TLCRSLEHEVGLFKPRECPF | TLCRSLEHEVGLFKPRECPF (1) |  |
| TSCVRTGHDENLLKAAYCSS | TSCVRTGHDENLLKAAYCSS (1) |  |
| TTCNKSMSSQPMRDSRECHR | TTCNKSMSSQPMRDSRECHR (1) |  |
| VACDISAVERLPASARSCKT | VACDISAVERLPASARSCKT (1) |  |
| VECVMASASTDGTAAHPCKP | VECVMASASTDGTAAHPCKP (1) |  |
| VFCCGSYCGGVEMLASRCGH | VFCCGSYCGGVEMLASRCGH (2) |  |
| VRCNEAQLQDSGTVPHPCLR | VRCNEAQLQDSGTVPHPCLR (1) |  |
| VVCFMERQMGTDVVSPMCVN | VVCFMERQMGTDVVSPMCVN (1) |  |
| WVCTSASQDTRLKEPGMCIA | WVCTSASQDTRLKEPGMCIA (1) |  |
| YSCTRLNGTGLQNPPSACDR | YSCTRLNGTGLQNPPSACDR (1) |  |
